Legend:
[1] = test system: subjects with moderate to severe depression; experiment: Additional clinical trial with NSI-189 (20 subjects, MADRS); type: in vivo, human; details: 80 mg (40 mg BID)
[2] = test system: patients with major depression; details: total daily doses of 40 mg, 80 mg or 120 mg; 18 patients on active drug; cited from earlier work
[3] = test system: patients with MDD; experiment: Open-label Phase 2 clinical trial of NSI-189 as monotherapy or adjunctive treatment in depression (MADRS); type: in vivo, human
Procedure: These patients also underwent a more comprehensive cognitive battery than in the prior Phase 2 study. As above, MMRM analyses were applied on MADRS change from baseline scores in MDD patients. […] In this study, the current episode was determined by the either the prior two years, or the period within the prior two years since the last time at which two continuous months of euthymia occurred, whichever was shorter. Insufficient response to an antidepressant in the current episode was defined as less than a 50% reduction in symptoms (e.g., based on the total score on the MADRS or HDRS).
All analyses used a z=−0.75 cutoff to identify poor cognition patients (with z-scores determined with reference to a separate healthy population) in order to ensure that poor cognition patients are impaired in those tasks.
An overall cognitive performance variable comprised of measures of executive function (digit-symbol substitution task, Wisconsin card sorting task, trail making task, Corsi blocks, verbal fluency), information processing speed (flanker task, choice RT, simple RT) and verbal learning and/or memory was analyzed.
Learning and/or memory was assessed with a word list task, in which patients are given the word lists on five learning trials, and then memory is assessed through recall of those word lists immediately after learning and again after an approximately 20 minute delay (including after inclusion of a new distractor list of words). This computer-implemented task is named VM-REACT (Verbal memory recall computerized test) and is further described in Naparstek et al., J Psychiatr Res., 2019, 114:170-177 (PMID 31096177).
Another way of analyzing the PSD is through the observation that the background trend in the data can be quantified as a measure of background neural activity and has a 1/f relationship (where f is frequency). One way of quantifying this signal is termed the aperiodic exponent, which is estimated as the negative slope for the line of best fit over the 1-50 Hz range of the power spectral density in the log-log space (T. Donoghue, et al., Nat Neurosci, 23(12): 1655-1665 December 2020). Channel-wise correlation of the aperiodic exponent with treatment outcome (as percentage change in MADRS scores from baseline) was examined.

[4] = test system: patients having major depressive disorder; details: cited from earlier work
[5] = test system: patients having major depressive disorder; experiment: First Phase 2 clinical trial of NSI-189 in major depressive disorder (220 patients, SPCD design), original and retrospective analysis; type: in vivo, human
Procedure: A subsequent Phase 2 study was then performed on 220 patients with major depression (11). […] Treatment in either stage was given for six weeks. This design is termed a Sequential Parallel Clinical Design (SPCD) and is analyzed statistically by combining results in a pre-defined manner for outcomes differences between relevant groups (e.g., drug vs. placebo) in each of the stages individually. There are two depression outcome measures accepted by the FDA for the evaluation of adults. See the June 2018 FDA draft guidance entitled “Major Depressive Disorder: Developing Drugs for Treatment.” These are the Montgomery-Asberg Depression Rating Scale (MADRS), which was the primary outcome in this study, as well as the Hamilton Depression Rating Scale (HDRS) which was a key secondary outcome measure.
The remaining patients continued their treatment for stage 2 of the trial. Treatment in either stage was given for six weeks. Patients were eligible for study participation if they were between the ages of 18-60 years, with current major depressive disorder of at least 8 weeks duration according to the DSM-5, as diagnosed by the Structured Clinical Interview for the DSM-5 clinical trial version (SCID-5-CT) during the screen and remote assessment visits, and if they were scored at least 20 at screen, remote assessment, and baseline visits on the Montgomery-Asberg Depression Rating Scale (MADRS). The phase 2 study collected cognitive task performance data prior to treatment, and then again after both stage 1 and stage 2 of the treatment protocol. The purpose of doing so was to determine whether treatment with this compound results in improvement in cognitive functioning, as measured by a variety of behavioral measures.
Prior to the inventor's retrospective analysis, there was no consideration as to using behavioral measures to predict treatment outcome nor was there any analysis conducted to this effect. There was no consideration of using cognitive performance as a predictor but only as an outcome measure. […] The tasks in this battery included a simple reaction time (RT) task, a choice RT task, a one-back working memory task, and a visual learning task. Moreover, given the conversion to z-score, a composite cognitive task performance score could be computed by averaging the z-scores for each of the four tasks in the battery. Analyses focused on the MADRS primary outcome of the study. Statistical analyses focused on the complete trial (incorporating both stage 1 and stage 2 outcomes), using the SPCD analytic approach reported in the original study and thus aligned could be compared with the original statistical analysis plan. Mixed models repeated measures (MMRM) were used to predict change from baseline (at 2, 4, and 6 weeks) in clinical scores and included covariates for group (i.e., poor versus good cognition as defined by a given measure of interest), time, time x group, time x baseline MADRS and baseline MADRS. These covariates likewise were used in the original study, and thus results here can be compared with the all-comer results reported previously. Statistical significance was thus assessed on the primary outcome (MADRS change from baseline at 6 weeks across the SPCD design). The change in MADRS scores in the all corner (i.e. original sample) analysis is shown in FIG. 1(A) for comparison to subgroups as defined by cognitive task performance.
To examine the effect of baseline cognition on clinical outcomes, individuals were split at the mean of the average z-score across all tasks (thus a cognition composite score). This generates two groupings, which were termed poor cognition (below mean, negative z scores) or good cognition (above mean, positive z scores). The poor cognition group can also be termed to be cognitively impaired. […]

[6] = test system: patients with PTSD; experiment: Open-label Phase 2 clinical trial of NSI-189 in PTSD (CAPS-5); type: in vivo, human; details: 40 mg BID, recall index cutoff z<=-0.5, week 4
Description: These patients underwent the same cognitive battery as patients with depression. As above, MMRM analyses were applied on the Clinician Administered PTSD Scale for DSM-5 (CAPS-5) change from baseline scores in PTSD patients. This analysis included 84 patients.
The overall sample using MMRMs that included core terms for time, baseline, group (i.e., poor versus good cognition as defined by a given measure of interest), time x group and time by baseline. The analyses shown in FIG. 12 used a z≤−0.5 cutoff on recall index scores in order to identify poor cognition patients (with z-scores determined with reference to a separate healthy population identically as for the depressed patients above). This cutoff ensured that poor cognition patients are impaired in this task.

[7] = 80 mg, regardless of how the clinical population was defined
[8] = all patients, 40 mg or 80 mg daily vs placebo, full SPCD analysis or each stage alone

For CC(C)CCNc1ncccc1C(=O)N1CCN(Cc2ccccc2)CC1 [NSI-189, (4-benzylpiperazin-1-yl)-[2-(3-methylbutylamino)pyridin-3-yl]methanone], the “MADRS improvement, poor versus good cognition patients” value ([1]; poor verbal memory z<-0.5, week 8) is given as “trend”, the “MADRS improvement, poor versus good cognition patients” value ([1]; poor verbal memory z<-0.5, weeks 2, 4, and 6) is given as “large and statistically significantly greater improvement” and the antidepressant efficacy [2] is given as “promising evidence for potential antidepressant efficacy”. For the same compound, the “MADRS outcome, self-reported poor versus good cognition” value ([3]; 80 mg (40 mg BID), CPFQ>25 vs <=25) was “no significant differences”, the “MADRS outcome, subjective diminishment of memory recall (CPFQ item)” value ([3]; 80 mg (40 mg BID), moderate or greater vs minimal or less diminishment) was “not predictive of outcome” and the “reduction in the MADRS score, poor versus good cognition patients” value ([3]; 80 mg (40 mg BID), overall cognitive composite cutoff z=-0.75) was “significantly better improvement in depressive symptoms”. The “Cohen's d, MADRS outcome, poor delayed recall versus good” value ([3]; 80 mg (40 mg BID), week eight, p=0.004) was 0.61, the “Cohen's d, MADRS outcome, poor immediate recall versus good” value ([3]; 80 mg (40 mg BID), week eight, p=0.010) was 0.56 and the “Cohen's d, MADRS outcome, poor delayed recall versus good” value ([3]; 80 mg (40 mg BID), week four, p=0.045) was 0.40. The “Cohen's d, MADRS outcome, poor delayed recall versus good” value ([3]; 80 mg (40 mg BID), week six, p=0.001) was 0.67, the “Cohen's d, MADRS outcome, poor immediate recall versus good” value ([3]; 80 mg (40 mg BID), week six, p=0.022) was 0.48 and the “Cohen's d, MADRS outcome, poor delayed recall versus good” value ([3]; 80 mg (40 mg BID), week two, p=0.028) was 0.43. The “change in MADRS from baseline, low versus high aperiodic exponent patients” value ([3]; 80 mg, EEG resting eyes closed, split at the median) was “significantly better depression outcome”, the “remission rates, poor versus good learning and/or memory patients” value [3, 7] was “approximately double” and the “response rates, poor versus good learning and/or memory patients” value [3, 7] was “approximately double”. For the same compound, the “response rates on the MADRS (50% or greater reduction)” value ([3]; poor learning and/or memory patients, 80 mg open label, across definitions of the clinical population) was 60-82%, the “effects on several secondary measures compared to placebo” value ([4]; 40 mg dose, not corrected for multiple comparisons) was “nominally significant effects” and the “efficacy on any study measure” value ([4]; 80 mg daily dose, all patients) was “did not demonstrate efficacy on any study measure”. The “antidepressant efficacy on the HDRS key secondary measure” value [4, 8] was “failed to demonstrate any evidence of antidepressant efficacy”, the “antidepressant efficacy on the MADRS primary outcome measure” value [4, 8] was “failed to demonstrate any evidence of antidepressant efficacy” and the “all-comer drug placebo difference, Cohen's d” value ([4]; all-comer population, prior Phase 2 study) was ~0.2. The “drug-placebo effect size Cohen's d, change in MADRS scores” value ([5]; 80 mg arm vs placebo, poor cognition group (cognitive composite score), SPCD analysis Stage 1 and Stage 2, p=0.014) was 0.58, the “change in MADRS scores, either drug arm versus placebo” value ([5]; good cognition group, 40 mg or 80 mg, p=0.25) was “no significant differences” and the “change in MADRS scores, 40 mg group versus placebo” value ([5]; poor cognition group, p=0.39) was “not significant”. The “Cohen's d, change in MADRS, 80 mg arm versus placebo” value ([5]; poor cognition group, stage 1, week 2, p=0.045) was 0.55, the “Cohen's d, change in MADRS, 80 mg arm versus placebo” value ([5]; poor cognition group, stage 1, week 4, p=0.01) was 0.7 and the “Cohen's d, change in MADRS, 80 mg arm versus placebo” value ([5]; poor cognition group, stage 1, week 6, p=0.03) was 0.59. The “change in MADRS scores, 80 mg versus placebo” value ([5]; poor self-reported cognition, CPFQ score >25) was “no difference is seen between treatment arms” and the “CAPS-5 change from baseline, poor versus good cognition” value [6] was “significantly greater reduction in PTSD symptoms”.

— patent US12208096B2, “Effective treatment of depression in patients having impaired learning and/or memory or certain EEG characteristics with a benzylpiperazine-aminopyridine agent” (Alto Neuroscience, Inc., priority 2022, dated 2025)
